Where “and” joins values, the source holds several entries; their conditions need not be identical. Equal entries are not always repeated. Where two headings read alike, the source gives them in different places.
What was measured:
[1] = In vitro half-life in liver microsomes, monkey; type: in vitro ADME; conditions: up to one hour, n=1
Protocol: (§1) In vitro metabolism was assessed using liver microsomes for all species. Compounds were incubated at 1 μM with liver microsomes for up to one hour. Reported half-lives greater than the total incubation time are extrapolated values. Extracts were assayed for disappearance of parent compound by LC-MS/MS detection.
(§2) Data represents one independent experiment conducted.

[2] = Plasma protein binding by equilibrium dialysis, human; type: in vitro ADME
Protocol: (§3) The in vitro plasma protein binding of compound I and compound III in rat, dog, monkey and human plasma was determined by equilibrium dialysis. Protein binding was assessed by equilibrium dialysis using rat, dog, monkey and human plasma. Samples were assayed by HPLC with LC-MS/MS detection. Plasma protein binding was high (>99%) for all species and for both compounds.

MT-4 cells = assay: Cellular cytotoxicity, 4 days, MTS, MT-4; conditions: for CC50: read-out: Average CC50 Values ± Standard Deviation, MT-4, Table 21, 4 days, MTS
Protocol: Following drug exposure for 4 days, cell viability was measured by MTS staining and CC50 values were determined. Drug concentrations ranged from 0.005 μM to 100 μM.
The preceding data, allows us to calculate selectivity index (SI) values, based on the ratio of CC50 to EC50 in MT-4 cells (the standard assay used in this work).

[3] = In vivo pharmacokinetics, monkeys; design: species or system monkey; conditions: for bioavailability: read-out: BA (absolute oral bioavailability); for concentration at 24 h: 5 mg/kg oral dose, read-out: plasma concentrations at 24 hours post-dose
Protocol: (§4) All animals received a single oral or intravenous dose of compound in either polyethylene glycol 400 (PEG400) or a mixture of 10% ethanol (EtOH), 10% dimethylacetamine (DMA) and 80% PEG400 at the indicated dose level. Plasma concentration data were acquired using sensitive and specific LC-MS/MS methods. Pharmacokinetic data from the toxicity study included aspects of gender differences, variability and exposure.
(§5) Blood samples (1.5-2.5 mL) were collected in heparinized tubes at 0 (pre-dose), 5 (IV only), 10, 20, 30 min, 1, 2, 4, 6, 8, 12 (PO only) and 24 hr after dosing. Plasma was separated and stored at −70° C. until analysis.
(§6) Concentrations of unlabeled compound I and compound III within plasma samples and excreta from rat, dog and monkey PK studies were identified through high performance liquid chromatographic (HPLC) methods that incorporated tandem mass spectrometric detection (LC-MS/MS).
(§7) The absolute oral bioavailability was determined in pharmacokinetic by comparison of AUC values of parent compound following single intravenous and oral doses of in rats (compound III only), dogs and monkeys.

[4] = Plasma protein binding by equilibrium dialysis, monkey; type: in vitro ADME
Protocol: as §3

CYP2B6 = target: T1, CYP2B6 (Homo sapiens, UniProt P20813); assay: Human liver microsomal CYP450 inhibition, CYP2B6; conditions: for IC50, CYP2B6: human liver microsomes
T1 sequence (P20813 1-491): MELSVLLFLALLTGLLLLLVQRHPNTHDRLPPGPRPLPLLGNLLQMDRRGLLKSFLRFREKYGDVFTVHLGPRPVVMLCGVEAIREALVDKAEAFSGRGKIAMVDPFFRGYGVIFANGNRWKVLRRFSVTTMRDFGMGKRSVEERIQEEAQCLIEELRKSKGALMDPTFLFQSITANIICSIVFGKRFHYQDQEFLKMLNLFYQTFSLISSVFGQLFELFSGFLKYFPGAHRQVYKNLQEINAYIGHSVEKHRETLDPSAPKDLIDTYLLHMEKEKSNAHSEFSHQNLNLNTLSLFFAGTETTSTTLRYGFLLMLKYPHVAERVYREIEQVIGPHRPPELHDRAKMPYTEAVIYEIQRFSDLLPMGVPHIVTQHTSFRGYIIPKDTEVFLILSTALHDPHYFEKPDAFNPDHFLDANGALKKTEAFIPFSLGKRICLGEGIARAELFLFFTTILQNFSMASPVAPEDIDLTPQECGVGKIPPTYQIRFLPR
Protocol: (§8) In addition, the type of inhibition was also evaluated.
(§9) Enzyme kinetic studies of cytochrome P450 isozyme inhibition were conducted using human liver microsomes.

[5] = target: T2, wild-type HIV-1 RT enzyme in BH10 backbone (Human immunodeficiency virus type 1 group M subtype B, UniProt P03366); assay: biochemical; conditions: for IC50: Average IC50 Values ± Standard Deviation, W.T.; for Fold Change, W.T.: Table 2, mutant vs wild-type; for Average Fold Changes ± Standard Deviation, W.T.: Table 4, IC50 mutant / IC50 wild-type
T2 construct: wild-type HIV RT enzyme derived from HIV subtype B (BH-10 strain)
Text: In Vitro Antiviral Activity Against Additional Mutant HIV RT Enzymes

[6] = In vivo pharmacokinetics, dogs; conditions: both sexes, Dog; for Tmax: mean; for bioavailability: read-out: BA (absolute oral bioavailability)
Protocol: as §4, §5, §6, §7

[7] = Plasma protein binding by equilibrium dialysis, dog; type: in vitro ADME; conditions: for fraction unbound: dog, read-out: Percentage Plasma Protein Binding, Dogs
Protocol: as §3

[8] = In vitro half-life in liver microsomes, human; type: in vitro ADME; conditions: up to one hour, longer half-lives are extrapolated, n=1
Protocol: as §1, §2

CYP2D6 [9] = target: T3, CYP2D6 (Homo sapiens, UniProt P10635); assay: Human liver microsomal CYP450 inhibition, CYP2D6; conditions: for IC50, CYP2D6: human liver microsomes
Protocol: as §8, §9

CYP2D6 [10] = target: T3, CYP2D6; assay: Recombinant CYP450 inhibition, fluorometric, CYP2D6; type: in vitro ADME; design: from tissue; host or cells: pooled human liver microsomes; conditions: read-out: percentage of inhibition at the highest concentration tested, CYP2D6
Protocol: Compounds were assayed using recombinant human microsomal proteins with fluorometric substrates. Signal was measured with a Fusion plate reader utilizing the appropriate excitation and emission wavelength set to detect the specific metabolite: […]

[11] = Table 1, in presence of detergent
[12] = plasma, 20 mg/kg PO-Fed, 1M, 1F

T3 sequence (P10635 whole entry): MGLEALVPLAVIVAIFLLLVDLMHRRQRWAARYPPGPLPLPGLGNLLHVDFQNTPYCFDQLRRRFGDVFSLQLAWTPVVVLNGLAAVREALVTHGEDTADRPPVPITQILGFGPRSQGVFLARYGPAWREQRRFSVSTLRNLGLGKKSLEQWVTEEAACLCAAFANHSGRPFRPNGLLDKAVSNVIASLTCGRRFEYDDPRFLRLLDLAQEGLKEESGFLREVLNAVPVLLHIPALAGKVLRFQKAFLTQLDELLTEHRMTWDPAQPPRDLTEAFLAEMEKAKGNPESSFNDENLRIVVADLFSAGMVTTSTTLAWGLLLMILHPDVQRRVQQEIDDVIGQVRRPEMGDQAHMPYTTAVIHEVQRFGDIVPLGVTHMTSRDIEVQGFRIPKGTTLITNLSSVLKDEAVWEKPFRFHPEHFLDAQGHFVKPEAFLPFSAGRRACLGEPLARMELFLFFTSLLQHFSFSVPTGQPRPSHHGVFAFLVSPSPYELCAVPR

With `CO[P@](=O)(c1cc(C)cc(/C=C/C#N)c1)c1c(C(N)=O)[nH]c2ccc(Cl)c(F)c12` [Compound I, (2-Carbamoyl-5-chloro-4-fluoro-1H-indol-3-yl)-[3-((E)-2-cyano-vinyl)-5-methyl-phenyl]-(R)-phosphinic acid methyl ester] the half-life at 1 μM ([1]; microsomes) was 0.257 h, the “Percentage Plasma Protein Binding, Humans” value [2] was 99.8% and the “Selectivity Index (SI), CC50/EC50 in MT-4 cells” value (MT-4 cells) was > 18,000 and > 22,000. The CC50 (MT-4 cells) was 18.6 ± 3.1 µM, the “bioavailability in males based on AUC values, excluding one animal” value ([3]; Monkey, 5 mg/kg oral) was 75% and the Tmax ([3]; female, monkey, in vivo, po, 5 mg/kg, 5 mg/kg PO-Fed, 3F, median) was 4 h. It also gave a bioavailability ([3]; female, monkey, in vivo, po, 5 mg/kg, Monkey, 5 mg/kg PO-Fed, 3F (females)) of 61%, a concentration at 24 h ([3]; in vivo, monkey) of 17.9 ng/mL and a Tmax ([3]; male, monkey, in vivo, po, 5 mg/kg, 5 mg/kg PO-Fed, 3M, median) of 4 h. For the same compound, the Tmax ([3]; male, monkey, in vivo, po, 5 mg/kg, 5 mg/kg PO-Fed, males (3M or 2M), mean) was 2.7 h, the bioavailability ([3]; male, monkey, in vivo, po, 5 mg/kg, Monkey, 5 mg/kg PO-Fed, 3M (males)) was 54% and the bioavailability ([3]; male, monkey, in vivo, po, 5 mg/kg, Monkey, 5 mg/kg PO-Fed, males (3M or 2M), exploratory study) was 58%. The “Percentage Plasma Protein Binding, Monkeys” value [4] was 99.9%, the IC50 (CYP2B6) was greater than 20 µM and the “IC50, CYP2B6” value (CYP2B6) was “not observed”. The IC50 [5, 11] was 0.366 ± 0.251 µM, the IC50 ([5]; Table 3, N=10) was 0.23 ± 0.05 µM and the “Fold Change, W.T.” value [5] was 1 fold. For the same compound, the “Average Fold Changes ± Standard Deviation, W.T.” value [5] was 1 fold, the Tmax ([6]; in vivo, 5 mg/kg PO-Fed, M+F) was 0.3 h and the bioavailability ([6]; in vivo, 5 mg/kg PO-Fed, M+F, IV 1 mg/kg) was 9%. The “Percentage Plasma Protein Binding, Dogs” value [7] was 99.0%, the fraction unbound ([7]; plasma) was less than 0.01 and the half-life at 1 μM ([8]; microsomes) was 2.01 h. For the same compound, the IC50 (CYP2D6 [9]) was greater than 20 µM, the “IC50, CYP2D6” value (CYP2D6 [9]) was “not observed” and the inhibition at 10 µM (CYP2D6 [10]; recombinant enzyme) was 11.2%.

With `CO[P@](=O)(c1cc(C)cc(/C=C/C#N)c1)c1c(C(N)=O)[nH]c2ccc(Cl)cc12` [Compound III, (2-Carbamoyl-5-chloro-1H-indol-3-yl)-[3-((E)-2-cyano-vinyl)-5-methyl-phenyl]-(R)-phosphinic acid methyl ester] the half-life at 1 μM ([1]; liver microsomes) was 0.21 h, the “Percentage Plasma Protein Binding, Humans” value [2] was 99.9% and the “Selectivity Index (SI), CC50/EC50 in MT-4 cells” value (MT-4 cells) was > 22,000 and > 18,000. For the same compound, the CC50 (MT-4 cells) was 27.3 ± 12.9 µM, the Tmax ([3]; female, monkey, plasma, po, 5 mg/kg, 5 mg/kg PO-Fed, 3F, median) was 2 h and the bioavailability ([3]; female, plasma, Monkey, 5 mg/kg PO-Fed, 3F (females)) was 76%. It also gave a Tmax ([3]; male, monkey, plasma, po, 5 mg/kg, 5 mg/kg PO-Fed, 3M, median) of 2 h, a Tmax ([3]; male, monkey, plasma, po, 5 mg/kg, 5 mg/kg PO-Fed, males (3M or 2M), mean) of 3 h and a Tmax ([3]; male, monkey, plasma, po, 20 mg/kg, 20 mg/kg PO-Fed, 2M, mean) of 2.5 h. The bioavailability ([3]; male, plasma, Monkey, 5 mg/kg PO-Fed, 3M (males)) was 42%, the bioavailability ([3]; male, plasma, Monkey, 20 mg/kg PO-Fed, 2M) was 61% and the concentration at 24 h ([3]; plasma, monkey) was 12 ng/mL. The “Percentage Plasma Protein Binding, Monkeys” value [4] was 99.9%, the IC50 (CYP2B6) was greater than 20 µM and the “IC50, CYP2B6” value (CYP2B6) was “not observed”. The IC50 [5, 11] was 0.343 ± 0.083 µM, the IC50 ([5]; Table 3, N=10) was 0.21 ± 0.02 µM and the “Fold Change, W.T.” value [5] was 1 fold. For the same compound, the “Average Fold Changes ± Standard Deviation, W.T.” value [5] was 1 fold, the Tmax ([6]; plasma, 5 mg/kg PO-Fed, M+F) was 1.5 h and the bioavailability ([6]; plasma, 5 mg/kg PO-Fed, M+F, IV 1 mg/kg) was 4%. The Tmax [6, 12] was 2.2 h, the bioavailability [6, 12] was 23% and the “Percentage Plasma Protein Binding, Dogs” value [7] was 99.4%. It also gave a fraction unbound ([7]; dog plasma) of less than 0.01, a half-life at 1 μM ([8]; liver microsomes) of 2.57 h and an IC50 (CYP2D6 [9]) greater than 20 µM. For the same compound, the “IC50, CYP2D6” value (CYP2D6 [9]) was “not observed” and the inhibition at 10 µM (CYP2D6 [10]; recombinant human CYP2D6 microsomal protein) was 15.2%.
